Reference: patent US20230148599A1, “FUNGICIDAL MIXTURES CONTAINING PYRAZOLE DERIVATIVES” (FMC Corporation, priority 2020, published 2023)

Tests used:
Type in all cases: in vivo
Septoria tritici [1] = experiment: Test A: wheat leaf blotch, preventive spray on wheat seedlings; conditions: Zymoseptoria tritici, 456 h, 100 = 100% disease control, 0 = no control, read-out: Test A disease control rating
Outline: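 Wheat seedlings sprayed to run-off with compound suspended in acetone/water with 250 ppm PEG400 surfactant, inoculated next day with Septoria tritici spores. Held 48 h saturated at 24 °C, then 17 days at 20 °C; disease rated 0–100% control relative to controls.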

[2] = tested on: Puccinia recondita f. sp. tritici; experiment: Test B: wheat leaf rust, preventive spray on wheat seedlings; conditions: 192 h, 100 = 100% disease control, 0 = no control, read-out: Test B disease control rating
Outline: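 Wheat seedlings were sprayed to run-off with compound suspended at ppm concentrations in acetone/water containing 250 ppm PEG400. The next day they were inoculated with Puccinia recondita f. sp. tritici spores, held saturated at 20 °C for 24 h, then kept 7 days at 20 °C. Disease control was rated 0–100% relative to untreated controls.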

Phakopsora pachyrhizi = experiment: Test D: Asian soybean rust, preventive spray on soybean seedlings; conditions: 216 h, 100 = 100% disease control, 0 = no control, read-out: Test D disease control rating
Outline: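 Compounds in acetone/water (50/50) with 250 ppm PEG400, dosed in ppm, sprayed to run-off on soybean seedlings; inoculated with P. pachyrhizi spores next day. Held 24 h at 22 °C in saturated air, then 8 days at 22 °C; visual rating of disease control, 0–100, relative to untreated controls.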

Botrytis cinerea [3] = experiment: Test E: tomato Botrytis, preventive spray on tomato seedlings; conditions: 120 h, 100 = 100% disease control, 0 = no control, read-out: Test E disease control rating
Outline: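 Compound suspended in 50/50 acetone/water with 250 ppm PEG400 surfactant and sprayed to run-off on tomato seedlings; Botrytis cinerea spores applied the next day. Incubation 48 h at 20° C in saturated atmosphere, then 3 days at 24° C. Visual rating 0–100% disease control relative to controls.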

Alternaria solani [4] = experiment: Test F: tomato early blight, preventive spray on tomato seedlings; conditions: 120 h, 100 = 100% disease control, 0 = no control, read-out: Test F disease control rating
Outline: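 Tomato seedlings were sprayed to run-off with compound suspended in acetone/water (50/50) with 250 ppm PEG400 and inoculated with Alternaria solani spores the next day. Plants were held 48 h at 27 °C in saturated humidity, then 3 days at 20 °C. Disease control was rated visually from 0 to 100 against untreated controls.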

Septoria tritici [5] = experiment: Test A1 (comparative): wheat leaf blotch, wheat seedlings; conditions: 100 = 100% disease control, 0 = no control
Source text: (§1) General protocol for preparing test suspensions for Tests A1-F1: the test compounds were first dissolved in acetone in an amount equal to 3% of the final volume and then suspended at the desired concentration (in ppm) in acetone and purified water (50/50 mix by volume) containing 250 ppm of the surfactant PEG400 (polyhydric alcohol esters). The resulting test suspensions were then used in Tests A1-F1.
(§2) The test solution was sprayed to the point of run-off on wheat seedlings. The following day the seedlings were inoculated with a spore suspension of Septoria tritici (the causal agent of wheat leaf blotch) and incubated in a saturated atmosphere at 24° C. for 48 h, and then moved to a growth chamber at 20° C. for 17 days, after which time disease ratings were made.
(§3) A rating of 100 indicates 100% disease control and a rating of 0 indicates no disease control (relative to the controls).

[6] = tested on: Puccinia recondita f. sp. tritici; experiment: Test B1 (comparative): wheat leaf rust, wheat seedlings; conditions: 100 = 100% disease control
Source text: as §1
as §2, with “Puccinia recondita f. sp.” for “Septoria”, “rust)” for “blotch)”, “20°” for “24°”, “24” for “48”, “7” for “17”
as §3

[7] = tested on: Blumeria graminis f. sp. tritici; experiment: Test C1 (comparative): wheat powdery mildew, wheat seedlings; conditions: 100 = 100% disease control
Source text: as §1
The test suspension was sprayed to the point of run-off on wheat seedlings. The following day the seedlings were inoculated with a spore dust of Blumeria graminis f. sp. tritici, (also known as Erysiphe graminis f. sp. tritici, the causal agent of wheat powdery mildew) and incubated in a growth chamber at 20° C. for 8 days, after which time visual disease ratings were made.
as §3

Botrytis cinerea [8] = experiment: Test E1 (comparative): tomato Botrytis, tomato seedlings; conditions: 100 = 100% disease control
Source text: as §1
(§4) The test suspension was sprayed to the point of run-off on tomato seedlings. The following day the seedlings were inoculated with a spore suspension of Botrytis cinerea (the causal agent of tomato Botrytis) and incubated in a saturated atmosphere at 20° C. for 48 h, and then moved to a growth chamber at 24° C. for 3 days, after which time visual disease ratings were made.
as §3

Alternaria solani [9] = experiment: Test F1 (comparative): tomato early blight, tomato seedlings; conditions: Rate 10 ppm, 100 = 100% disease control
Source text: as §1
as §4, with “Alternaria solani” for “Botrytis cinerea”, “early blight)” for “Botrytis)”, “27°” for “20°”, “20°” for “24°”
as §3

For `Cc1nn(C)c(Nc2c(F)cccc2[N+](=O)[O-])c1-c1ccc(F)cc1Cl` [Compound 112, 4-(2-chloro-4-fluorophenyl)-N-(2-fluoro-6-nitrophenyl)-1,3-dimethyl-1H-pyrazol-5-amine], the pest or weed control at 10 ppm (Septoria tritici [1]; 10 ppm) was 72%, the pest or weed control at 50 ppm (Septoria tritici [1]; 50 ppm) was 88% and the pest or weed control at 10 ppm ([2]; 10 ppm) was 100%. It also gave a pest or weed control at 50 ppm ([2]; 50 ppm) of 100%, a pest or weed control at 10 ppm (Phakopsora pachyrhizi; 10 ppm) of 52% and a pest or weed control at 50 ppm (Phakopsora pachyrhizi; 50 ppm) of 99%. For the same compound, the pest or weed control at 10 ppm (Botrytis cinerea [3]; 10 ppm) was 100%, the pest or weed control at 50 ppm (Botrytis cinerea [3]; 50 ppm) was 100% and the pest or weed control at 10 ppm (Alternaria solani [4]; 10 ppm) was 98%. For the same compound, the pest or weed control at 50 ppm (Alternaria solani [4]; 50 ppm) was 100%, the “Test A1 disease control rating” value (Septoria tritici [5]; Rate 10 ppm) was 81% and the “Test A1 disease control rating” value (Septoria tritici [5]; Rate 50 ppm) was 100%. The “Test B1 disease control rating” value ([6]; Rate 10 ppm) was 86%, the “Test B1 disease control rating” value ([6]; Rate 50 ppm) was 100% and the “Test C1 disease control rating” value ([7]; Rate 10 ppm) was 97%. For the same compound, the “Test C1 disease control rating” value ([7]; Rate 50 ppm) was 98%, the “Test E1 disease control rating” value (Botrytis cinerea [8]; Rate 10 ppm) was 99% and the “Test E1 disease control rating” value (Botrytis cinerea [8]; Rate 50 ppm) was 99%. The “Test F1 disease control rating” value (Alternaria solani [9]) was 99%.
